Experimental data as given in publication PMC8751641, “Synthesis and Antiviral Activities of Neoechinulin B and Its Derivatives” (Journal of Natural Products, 2021).

What was measured:
[1] = test system: HCV JFH-1; test: Anti-HCV assay (infectivity of HCV in the medium, focus-forming assay); type: cell-based; conditions: Hepatitis C virus, Huh-7.5.1; Huh7.5.1 cells, HCV JFH-1 MOI 0.15, 72 h; mean ± SD, triplicate
Procedure: (§1) The anti-HCV assay was performed as described previously.[3] In brief, Huh7.5.1 cells were treated with HCV JFH-1 at a multiplicity of infection (MOI) of 0.15 for 4 h. […] The infectivity of HCV in the medium was quantified by a focus-forming assay with Huh7.5.1 cells. Cell viability at 72 h post-treatment was simultaneously measured by the MTT assay.[16] Cell growth inhibition was evaluated as the ratio of the absorbance of the sample to that of the control.

[2] = MTT assay, cytotoxicity against host Huh7.5.1 cells; type: cell-based; conditions: human
Procedure: as §1

[3] = Cell viability of VeroE6/TMPRSS2 cells (DAPI staining, cell count); type: cell-based; conditions: chlorocebus sabaeus, 24 h, DAPI staining, surviving cell number, read-out: Cytotoxicity CC50
Procedure: (§2) The number of cells was quantified based on the measurement of the DNA content.[20] Cell growth inhibition was evaluated as the ratio of the absorbance of the sample to that of the control. […] The cells were washed with PBS and fixed in 4% paraformaldehyde. The resultant cells were stained with 0.02% 4′,6-diamidino-2-phenylindole (DAPI) and washed with PBS four times. The number of surviving cells was quantified with a high-content imaging analyzer, ImageXpress Micro Confocal (Molecular Device, San Jose, CA, USA).

[4] = test system: HCV JFH-1; set-up: method as in PMID 27489280; conditions: cited from earlier work
[5] = test system: poliovirus; conditions: cited from earlier work
[6] = test system: influenza A virus subtype H1N1; set-up: method as in PMID 25681711; conditions: by targeting viral hemagglutinin; cited from earlier work
[7] = test system: recombinant LXRα; set-up: method as in PMID 27489280; conditions: cited from earlier work
[8] = test system: recombinant LXRβ; set-up: method as in PMID 27489280; conditions: cited from earlier work
[9] = test system: SARS-CoV-2 Wk-521 strain; test: Anti-SARS-CoV-2 assay (extracellular viral RNA, VeroE6/TMPRSS2 cells); conditions: for IC50: read-out: Anti-SARS-CoV-2 activity IC50, MOI 0.003, 24 h, extracellular viral RNA, mean ± SD, triplicate; for IC90: read-out: Anti-SARS-CoV-2 activity IC90, MOI 0.003, 24 h, extracellular viral RNA, mean ± SD, triplicate
[10] = test system: VeroE6/TMPRSS2 cells; test: Cell viability of VeroE6/TMPRSS2 cells (DAPI staining, cell count); type: cell-based
Procedure: as §2

[11] = test system: LXR; test: LXRE-driven luciferase reporter assay in Huh-7 cells; conditions: 48 h

## C=CC(C)(C)c1[nH]c2ccccc2c1/C=c1\[nH]c(=O)c(=C)[nH]c1=O [1a, neoechinulin B]
[1]
  IC50: 4.7 ± 1.4 µM
  IC90: > 20 µM
[2]
  CC50 at 72 h: > 20 µM
[3]
  CC50 at 24 h: > 70 µM
[4]
  Antiviral effects against HCV (earlier report): exhibited antiviral effects against hepatitis C virus (HCV)
[5]
  Poliovirus RNA replication in DMVs: reduced the RNA replication of poliovirus
[6]
  Entry of influenza A virus subtype H1N1: inhibit the entry of influenza A virus subtype H1N1
[7]
  Interaction with LXRα (SPR): interacts with recombinant LXRα and LXRβ
[8]
  Interaction with LXRβ (SPR): interacts with recombinant LXRα and LXRβ
[9]
  IC50: 32.9 ± 13.2 µM
  IC90: 45.6 ± 7.4 µM

## C=c1[nH]c(=O)/c(=C/c2c[nH]c3ccccc23)[nH]c1=O [1b, (Z)-3-[(1H-Indol-3-yl)methylene]-6-methylenepiperazine-2,5-dione]
[1]
  IC50: 2.2 ± 0.64 µM
  IC90: > 20 µM
[2]
  CC50 at 72 h: > 20 µM
[3]
  CC50 at 24 h: > 100 µM
other
  melting point: 285 to 286 °C
[9]
  Anti-SARS-CoV-2 activity (in words): did not show anti-SARS-CoV-2 activity
  IC50: > 40 µM
  IC90: > 40 µM

## C=c1[nH]c(=O)/c(=C/c2ccccc2)[nH]c1=O [1c]
[1]
  IC50: 0.0059 ± 0.0042 µM
  IC90: > 20 µM
[2]
  CC50 at 72 h: > 20 µM
[3]
  CC50 at 24 h: 40.1 ± 10.5 µM
other
  melting point: 242 to 243 °C
[9]
  Anti-SARS-CoV-2 activity (in words): exhibited anti-SARS-CoV-2 activity
  IC50: 13.6 ± 3.2 µM
  IC90: 20.3 ± 3.2 µM

## C=c1[nH]c(=O)/c(=C/c2ccoc2)[nH]c1=O [1d]
[1]
  IC50: 1.4 ± 0.34 µM
  IC90: > 20 µM
[2]
  CC50 at 72 h: > 20 µM
[3]
  CC50 at 24 h: > 80 µM
other
  melting point: 242 to 243 °C
[9]
  Anti-SARS-CoV-2 activity (in words): exhibited anti-SARS-CoV-2 activity
  IC50: 9.3 ± 6.2 µM
  IC90: 21.2 ± 9 µM

## C=c1[nH]c(=O)/c(=C/c2ccsc2)[nH]c1=O [1e]
[1]
  IC50: 1.4 ± 0.48 µM
  IC90: > 20 µM
[2]
  CC50 at 72 h: > 20 µM
[3]
  CC50 at 24 h: 42.2 ± 7.9 µM
[10]
  Toxicity toward the host cells (in words): showed toxicity toward the host cells
other
  melting point: 242 to 243 °C

## C=c1[nH]c(=O)/c(=C/c2cc(C(C)(C)C)cc(C(C)(C)C)c2)[nH]c1=O [1f]
[1]
  IC50: 0.015 ± 0.019 µM
  IC90: > 20 µM
[2]
  CC50 at 72 h: > 20 µM
[3]
  CC50 at 24 h: > 100 µM
other
  melting point: 204 to 205 °C
[9]
  Anti-SARS-CoV-2 activity (in words): did not show anti-SARS-CoV-2 activity
  IC90: > 40 µM

## C=c1[nH]c(=O)/c(=C/c2ccc(C(C)(C)C)cc2)[nH]c1=O [1g]
[1]
  IC50: 1.1 ± 0.34 µM
  IC90: > 20 µM
[2]
  CC50 at 72 h: > 20 µM
[3]
  CC50 at 24 h: > 70 µM
other
  melting point: 212 to 213 °C
[9]
  Anti-SARS-CoV-2 activity (in words): did not show anti-SARS-CoV-2 activity
  IC90: > 40 µM

## C=c1[nH]c(=O)/c(=C/c2ccc(C)cc2)[nH]c1=O [1h]
[1]
  IC50: 2.7 ± 1.4 µM
  IC90: > 20 µM
[2]
  CC50 at 72 h: > 20 µM
[3]
  CC50 at 24 h: 63.1 ± 17.9 µM
other
  melting point: 237 to 239 °C
[9]
  Anti-SARS-CoV-2 activity (in words): exhibited anti-SARS-CoV-2 activity
  IC50: 6 ± 2.4 µM
  IC90: 16.3 ± 6.2 µM

## C=c1[nH]c(=O)/c(=C/c2ccc(OC)cc2)[nH]c1=O [1i]
[1]
  IC50: 1.3 ± 0.42 µM
  IC90: > 20 µM
[2]
  CC50 at 72 h: > 20 µM
[3]
  CC50 at 24 h: 47.2 ± 0.6 µM
[10]
  Toxicity toward the host cells (in words): showed toxicity toward the host cells
other
  melting point: 229 to 231 °C

## C=c1[nH]c(=O)/c(=C/c2ccc(OC)c(OC)c2)[nH]c1=O [1j]
[1]
  IC50: 2 ± 0.068 µM
  IC90: > 20 µM
[2]
  CC50 at 72 h: > 20 µM
[3]
  CC50 at 24 h: 62.8 ± 17.4 µM
other
  melting point: 237 to 238 °C
[9]
  Anti-SARS-CoV-2 activity (in words): exhibited anti-SARS-CoV-2 activity
  IC50: 10.3 ± 3.7 µM
  IC90: 20.1 ± 8.5 µM

## C=c1[nH]c(=O)/c(=C/c2cc(OC)c(OC)c(OC)c2)[nH]c1=O [1k]
[1]
  IC50: 1.1 ± 0.6 µM
  IC90: > 20 µM
[2]
  CC50 at 72 h: > 20 µM
[3]
  CC50 at 24 h: 78.8 ± 4.5 µM
other
  melting point: 219 to 221 °C
[9]
  Anti-SARS-CoV-2 activity (in words): did not show anti-SARS-CoV-2 activity
  IC90: > 40 µM

## C=c1[nH]c(=O)/c(=C/c2ccc(C(=O)OC)cc2)[nH]c1=O [1l]
[1]
  IC50: 1.2 ± 0.16 µM
  IC90: 6.5 ± 1.84 µM
[2]
  CC50 at 72 h: > 20 µM
[3]
  CC50 at 24 h: > 50 µM
other
  melting point: 248 to 249 °C
[9]
  Anti-SARS-CoV-2 activity (in words): exhibited anti-SARS-CoV-2 activity
  IC50: 8.4 ± 2.1 µM
  IC90: 14.1 ± 1.8 µM

## C=c1[nH]c(=O)/c(=C/c2ccc(N(C)C)cc2)[nH]c1=O [1m]
[1]
  IC50: 1.2 ± 0.54 µM
  IC90: > 20 µM
[2]
  CC50 at 72 h: > 20 µM
[3]
  CC50 at 24 h: 28.3 ± 6.2 µM
[10]
  Toxicity toward the host cells (in words): showed toxicity toward the host cells
other
  melting point: 225 to 227 °C

## C=c1[nH]c(=O)/c(=C/c2ccc(C(F)(F)F)cc2)[nH]c1=O [1n]
[1]
  IC50: 1.6 ± 0.32 µM
  IC90: 9.7 ± 1.06 µM
[2]
  CC50 at 72 h: > 20 µM
[3]
  CC50 at 24 h: 30.1 ± 7.3 µM
[10]
  Toxicity toward the host cells (in words): showed toxicity toward the host cells
other
  melting point: 244 to 245 °C

## C=c1[nH]c(=O)/c(=C/c2ccc(-c3ccccc3)cc2)[nH]c1=O [1o]
[1]
  IC50: 4.9 ± 0.66 µM
  IC90: > 20 µM
[2]
  CC50 at 72 h: > 20 µM
[3]
  CC50 at 24 h: > 100 µM
other
  melting point: 229 to 230 °C
[9]
  Anti-SARS-CoV-2 activity (in words): exhibited anti-SARS-CoV-2 activity
  IC50: 20.8 ± 8 µM
  IC90: > 40 µM

## C=c1[nH]c(=O)/c(=C/c2ccc3ccccc3c2)[nH]c1=O [1p]
[1]
  IC50: 0.26 ± 0.11 µM
  IC90: 1.9 ± 0.65 µM
[2]
  CC50 at 72 h: > 20 µM
[3]
  CC50 at 24 h: 40.7 ± 20.1 µM
other
  melting point: 216 to 217 °C
[9]
  Anti-SARS-CoV-2 activity (in words): did not show anti-SARS-CoV-2 activity
  IC50: > 40 µM
  IC90: > 40 µM

## O=S(=O)(c1ccccc1)N(CC(F)(F)F)c1ccc(C(O)(C(F)(F)F)C(F)(F)F)cc1 [T0901317]
[11]
  LXRE-driven luciferase activity (agonist): increased the LXRE-driven luciferase activity

## C=CC(C)(C)c1[nH]c2ccccc2c1/C=C1\NC(=O)C(C)(OC)NC1=O (stereo not shown) [compound 6, variecolorin H]
[1]
  IC50: > 20 µM
  IC90: > 20 µM
[2]
  CC50 at 72 h: > 20 µM
[3]
  CC50 at 24 h: > 100 µM
[9]
  IC50: > 40 µM
  IC90: > 40 µM

## C=CC(C)(C)c1[nH]c2ccccc2c1C[C@@H]1NC(=O)[C@H](C)NC1=O [compound 8, preechinulin]
[1]
  IC50: > 20 µM
  IC90: > 20 µM
[2]
  CC50 at 72 h: > 20 µM
[3]
  CC50 at 24 h: > 100 µM
[9]
  IC50: > 40 µM
  IC90: > 40 µM
